Results on one compound are retold here after US20080200538A1, “Inhibition of Monocyte Survival, Differentiation, or Proliferation” (The Ohio State University Research Foundation, priority 2005, published 2008).

Test [1] relates to IL-1β. Put plainly: IL-1β release from LPS-treated monocytes (sandwich ELISA). The test is classed as cell-based. The conditions noted are these: LPS stimulated monocytes. On the procedure:
Effect of apigenin on IL-1β release. IL-1β released was determined by sandwich ELISA in supernatants of freshly isolated monocytes, or monocytes cultured for 18 h left untreated, treated with 10 ng/ml of LPS or A with different doses of apigenin. B. LPS and different doses of apigenin added at the same time. C. LPS added 1 h prior to the addition of different doses of apigenin. Values represent means ±SEM (N=5, * P<0.05, compared to LPS alone)

The test system of another test is LPS stimulated monocytes. Put plainly: Cell death of LPS-treated monocytes (calcein AM/PI). The conditions noted are these: monocytes stimulated with LPS, increasing amount of apigenin. The test is classed as cell-based. The method, then: (§1) To investigate apoptosis, cells were plated at a density of 1×10^6 cells/well. After treatment, cells were collected and washed in PBS. Cells were then incubated in RPMI (no phenol red) and 1 μg/ml calcein AM for 30 min and 5×10−2 ng/ml propidium iodide (PI) for 5 min. Cells were washed twice and resuspended in PBS. Cells were viewed using a fluorescent microscope (Olympus, Melville, N.Y.). At least 200 cells were counted. Cells calcein AM positive (green) in the absence of PI (red) were considered alive while cells undergoing apoptosis are green with red. Number of green cells or green with red cells was counted over total number of cells (green alone and green with red) to express cell survival or apoptotic cell percentage respectively.
Apigenin induces cell death on LPS-treated monocytes. Monocytes were stained with calcein AM and PI as described in Material and Methods to evaluate the percentage of cell death and survival. Monocytes freshly isolated (Fresh), treated for 16 h with 10 ng/ml LPS alone, left untreated (NT) or (A) treated with different doses of apigenin, (B) with LPS and apigenin, or (C) with LPS 1 h prior to the addition of apigenin. Values represent the means ±SEM (N=#, *P<0.05 compared to LPS alone).

In another test the test system is p38. Put plainly: Western blot of p38 phosphorylation in THP-1 cells. The test is classed as cell-based, human. The conditions noted are these: THP-1, 50 μM apigenin, after 3 h.
For test [2], the system named is U937 cells. Put plainly: Cell survival and apoptosis by calcein AM/PI staining. The test is classed as cell-based, human. The conditions noted are these: U937, 50 μM. On the procedure:
FIG. 2. Apigenin induces cell death in monocytic leukemia cells. THP-1 and U937 leukemia cells were treated for various lengths of time with 50 μM apigenin or left untreated (NT) and stained with calcein AM and PI as described in Material and Methods to evaluate the percentage of cell survival. (A) THP cells after 12 h cells treated with 50 μM apigenin or with DMSO (NT). (B) The percentage of cell survival represented by means ±SEM (N=3).
as §1

For test [3], the system named is caspase-3. Briefly: Caspase-3 activity in LPS-stimulated monocytes (DEVD-AFC). Format: cell-based. The method, then:
(§2) For measurements of caspase activity, cells were plated at a density of 1.5×10^6 cells/well. After treatment, cells extracts were prepared as previously described (Doseff, A. I., Baker J. H., Bourgeois T. A. and Wewers M. D. (2003) Interleukin-4-induced zpoptosis entails caspase activation and suppression of extracellular signal-regulated kinase phosphorylation. Am. J. Resp. Cell Mol. Biol., 29, 367-374). Protein extracts were incubated with 20 μM DEVD-AFC to determine caspase-3 activity or LEHD-AFC to determine caspase-9 activity (Enzyme Systems Products, Livermore, Calif.) in a cytobuffer as previously described (Doseff, A. I., Baker J. H., Bourgeois T. A. and Wewers M. D. (2003) Interleukin-4-induced zpoptosis entails caspase activation and suppression of extracellular signal-regulated kinase phosphorylation. Am. J. Resp. Cell Mol. Biol., 29, 367-374). Levels of released AFC were measured using Cytofluor 400 fluorimeter (Filters: excitation 400 nm, emission 508 nm; Perspective Co., Framingham, Mass.).
Apigenin reactivates caspase-3 on LPS-stimulated monocytes. Caspase-3 activity was determined by the DEVD-AFC assay in monocytes freshly isolated (Fresh) or monocytes cultured for 18 h left untreated, treated with 10 ng/m 1 LPS or (A) with different doses of apigenin alone, (B) with LPS and different doses of apigenin or (C) with LPS 1 h prior to the addition of apigenin. […]

Test [4] has as its system caspase-3. Put plainly: Caspase-3 activity, DEVD-AFC assay, U937 lysates. Format: cell-based, human. The conditions noted are these: U937, 50 μM apigenin; remained high even after 24 h. On the procedure:
(§3) FIG. 3. Apigenin induces caspase activation in monocytic leukemia. THP-1 (top) and U937 (bottom) leukemia cells were treated for various lengths of time with 50 μM apigenin or DMSO (NT). (A and C) Caspase-9 activity was determined by the LEHDAFC assay. (B and D) Caspase-3 activity was determined by the DEVD-AFC assay. Data represents means ±SEM (N=3).
as §2

For test [5], the system named is U937 cells. Put plainly: Cell viability assay (CellTiter 96 / MTT, A490). Format: cell-based, human. The conditions noted are these: 24 h, reduced to. On the procedure:
(§4) FIG. 1. Effect of apigenin and naringenin in cell survival of cancer cells. (A) Structure of the flavonoids apigenin and naringenin. (B) THP-1, U937, A549, and MCF-7 cells were treated with various doses of apigenin or naringenin for 24 h. After the treatment, the percentage of cell proliferation was calculated as the ratio of treated cells to control cells as determined by the MTT method (A490). Data represents means ±SEM (N=9). […] Cells were plated at a density of 2×10^4 cells/well into 96-well plates and treated with flavonoids at indicated concentrations for 24 h. Absorbance at 490 nm (A490) was recorded using an ELISA plate reader (Bio-Tek ELx800, KC Junior, Winooski, Vt.).

Another test relates to THP-1 cells. Put plainly: Cell viability assay (CellTiter 96 / MTT, A490). The test is classed as cell-based, human. The conditions noted are these: THP-1, 50 to 500 μM apigenin, 24 h; reduced to. The method, then: as §4
Test [6] concerns caspase-9. Briefly: Caspase-9 activity, LEHD-AFC assay, U937 lysates. The test is classed as cell-based, human. The conditions noted are these: U937, 50 μM apigenin; remained high even after 24 h. On the procedure: as §3, §2
Test [7] has as its system TNFα. Briefly: TNFα release by LPS stimulated monocytes. Format: cell-based.
Test [8] concerns caspase-9. Put plainly: Caspase-9 activity, LEHD-AFC assay, THP-1 lysates. The test is classed as cell-based, human. The conditions noted are these: THP-1, 50 μM apigenin. On the procedure: as §3, §2
Test [9] concerns IL-8. Put plainly: Cytokine expression in LPS-treated monocytes by quantitative PCR. The test is classed as cell-based. The conditions noted are these: 10 ng/ml LPS and 10 μM apigenin. The method, then:
(§5) Expression of IL-1β, IL-8 and TNFα was analyzed by quantitative PCR using lysates from monocytes left untreated, treated with 10 ng/ml of LPS or with LPS and 10 μM of apigenin. Values represent means ±SEM (N=4).

The subject of test [10] is TNFα. The description is as above. Format: cell-based. The conditions noted are these: 10 ng/ml LPS and 10 μM apigenin. The method, then: as §5
For test [11], the system named is IL-1β. Described as above. Format: cell-based. The conditions noted are these: 10 ng/ml LPS and 10 μM apigenin. The method, then: as §5
Test [12] deals with IL-8. Put plainly: IL-8 release by LPS stimulated monocytes. Format: cell-based.

Protocol for p38: A. THP-1 cells were treated with 50 μM apigenin for various lengths of time. Lysates were separated by SDS-PAGE, transferred and analyzed by immunoblots with anti-phospho-p38 (pp 38) and anti-total-p38 antibodies. B. THP-1 cells were treated for 6 hr with 50 μM apigenin alone (lane 2), treated with the apigenin diluent (lane 1), pretreatred with 10 or 25 μM SB203580 for 1 hr prior to the addition of apigenin (lanes 3 and 4) or with the SB203580 inhibitor alone (lanes 5 and 6).
Extracts from 3×10^6 cells were prepared by incubating cells for 30 min on ice in lysis buffer (50 mM Tris, 10 mM EDTA 0.5% NP-40, 10 mM Na-glycerophosphate, 5 mM Na-pyrophosphate, 50 mM NaF, 1 mM orthovanadate, 1 mM DTT, 0.1 mM PMSF, 2 μg/ml of protease inhibitors: chymostatin, pepstatin, antipain, and leupeptin). Cell lysates were centrifuged (14,000×g for 10 min at 4° C.) and the supernatants were stored for at −70° C. for future analysis. Equal amounts of protein were loaded and separated by SDS-PAGE, transferred onto nitrocellulose membranes and probed with antibodies of interest followed by horseradish peroxidase conjugated secondary antibody and visualized by enhanced chemiluminescence (Amersham, Arlington Heights, Ill.). […]

As to `O=c1cc(-c2ccc(O)cc2)oc2cc(O)cc(O)c12` [apigenin], the “release of IL-1β” value in the test with IL-1β [1] is listed as “inhibits”. Besides, in the test with LPS stimulated monocytes, the “death of LPS stimulated monocytes” value is reported as “induces the death of such stimulated monocytes in an apigenin-dose dependent manner”. Moreover, the “phosphorylation of p38” value with p38 is reported as “increase”. In addition, the figures for the “decrease in cell survival” value in the test on U937 cells [2] (12 h) and with U937 cells [2] (24 h) were 10% and 50%, respectively. The caspase-3 activation entry in the test on caspase-3 [3] was “significantly increases”. For the same compound, the “caspase-3 activity, time course” value with caspase-3 [4] is “detected at 9 h”. The “cell proliferation (ratio of treated to control cells)” value with U937 cells [5] (U937, 50 μM apigenin) was 50%; in the test with U937 cells [5] (U937, higher concentrations of apigenin (above 50 μM)), 20%; with THP-1 cells, “approximately 20%”. Further, the “caspase-9 activity, time course” value is “detected at 9 h” in the test on caspase-9 [6]; “observed after 6 h of treatment with apigenin and remained high after 9 h of treatment, decreasing after 12 h” with caspase-9 [8]. For the same compound, the “release of TNFα” value in the test on TNFα [7] is “inhibits”. Moreover, the “expression of IL-8” value with IL-8 [9] is listed as “inhibits the expression”. The “expression of TNFα” value in the test with TNFα [10] is reported as “inhibits the expression”. The “expression of IL-1β” value in the test on IL-1β [11] is recorded as “inhibits the expression”. In addition, in the test on IL-8 [12], the “release of IL-8” value was “inhibits”.
